Patent US11059795B2, “Androgen receptor modulators and methods for their use” (ESSA Pharma, Inc., priority 2018, dated 2021)

Test: In vivo pharmacokinetics in plasma after oral gavage (PO) in male CD-1 mice
Details: plasma, single PO dose 5 mg/kg, male CD-1 mice; for bioavailability / AUC(0-t) / Cmax / Tmax / half-life: mouse; for bioavailability: oral availability; for half-life: read-out: t½ (converted)
Experimental: The purpose of this study is to determine the pharmacokinetics of the tested compounds in plasma, following oral gavage administration (PO) to male CD-1 mice.
Animal Husbandry: Animals were group housed during acclimation and the study. The animal room environment were controlled (target conditions: temperature 18 to 26° C., relative humidity 30 to 70%, 12 hours artificial light and 12 hours dark). Temperature and relative humidity were monitored daily. Animals were fasted at least 12 hours prior to the administration. All animals had access to Certified Rodent Diet ad libitum 4 hours post dosing.
Dose Formulation: prepared 85-100 uL of a stock solution of representative compounds of the disclosure in DMSO at 50 mM; 1.5% v/v of Tween 80 were added and mixed gently; 95.5% v/v saline was added gently to the organic phase. The solution was mixed slowly by reverse pipetting to get a clear solution.
Dose Administration: the dose formulations were administered via oral gavage per facility SOPs. The dose volume were determined by the animals' body weight collected on the morning of dosing day
Sample Collection: blood collection (about 0.05 mL per time point) was performed from saphenous vein of each animal into polypropylene tubes at each timepoints (0, 0.25, 0.5, 1, 2, 4, 8, 12, and 24 hr). All blood samples were transferred into pre-chilled tubes containing 2 μL of K2-EDTA (0.5M) and placed on wet ice until centrifugation. Each collected blood sample was in the wet-ice before centrifugation. Each collected blood was under centrifugation for 15 minutes at 4° C. and 3000 g for plasma collection. Plasma samples were stored in polypropylene tubes, quickly frozen over dry ice and kept at −70±10° C. until LC/MS/MS analysis.
Bioanalytical analysis: A LC-MS/MS method for the quantitative determination of tested compound in biological matrix were developed under non-GLP compliance. A calibration curve with at least 7 non-zero calibration standards were applied for the method including LLOQ.
Plasma concentration versus time data were analyzed by non-compartmental approaches using the Phoenix WinNonlin 6.3 software program. Cl, Vdss, C0, Cmax, Tmax, T^1/2, AUC(0-t), AUC(0-inf), MRT(0-t), MRT(0-inf), % F (oral availability) and graphs of plasma concentration versus time profile were reported.

SMILES	bioavailability [%]	AUC(0-t) [ng·h/mL]	Cmax [ng/mL]	Tmax [h]	half-life [h]	AUC/D [kg·ng·h/mL/mg]
C[C@H](Oc1ccc(C(C)(C)c2cc(Cl)c(OCCCl)c(C#N)c2)cc1)c1ccnc(NS(C)(=O)=O)n1 (single isomer, unassigned) [Compound A170]	150	80000	8500	3	3	16007.6
Cc1cnc(NS(C)(=O)=O)nc1COc1ccc(C(C)(C)c2cc(Cl)c(OCCCl)c(C#N)c2)cc1 [Compound A122, N-(4-((4-(2-(3-Chloro-4-(2-chloroethoxy)-5-cyanophenyl)propan-2-yl)phenoxy)methyl)-5-methylpyrimidin-2-yl)methanesulfonamide]	92.4	6800	4080	0.5	1.1	1360.0
CCS(=O)(=O)Nc1nc(COc2ccc(C(C)(C)c3cc(Cl)c(OCCCl)c(C#N)c3)cc2)co1 [Compound A126]	86	24500	3110	1.3	4.7	4909.4
CCS(=O)(=O)Nc1nccc(COc2ccc(C(C)(C)c3cc(Cl)c(OCCCl)c(C#N)c3)cc2)n1 [Compound A131]	81	76000	7050	1.3	5	15209.4
CC(C)(c1ccc(OCc2nc(S(C)(=O)=O)cs2)cc1)c1cc(Cl)c(OCCCl)c(C#N)c1 [Compound A136, 3-Chloro-2-(2-chloroethoxy)-5-(2-(4-((4-(methylsulfonyl)thiazol-2-yl)methoxy)phenyl)propan-2-yl)benzonitrile]	14	42000	3430	1.5	10.2	8407.6
